The record followed here is PubChem BioAssay (NCI).

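These data come from cells grown in 96-well plates and exposed to compound for 48 hours at five concentrations. GI50: concentration for 50% inhibition of growth. TGI is the concentration that stops growth completely.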 Where a SMILES comes first, the peptide text is derived from it. [ ]: non-standard residue; d: D form. pGlu = O=C1CC[CH](C(=O)O)N1

Some test systems named below: SF-295 CNS; SNB-19 CNS; MCF7 breast; SF-268 CNS; HOP-62 NSCLC; MOLT-4 leukemia; NCI-H522 lung; A549 NSCLC; UACC-257 melanoma; U251 CNS.
Holding throughout (test): NCI-60 cell line screen, 48 h

For `CCCCON(OC(=O)c1ccc2ccccc2c1)C(=O)c1ccccc1`, the GI50 in the assay on SF-295 CNS was greater than 100 µM; in the assay on SNB-19 CNS, greater than 100 µM; with MCF7 breast, 60.1 µM; with SF-268 CNS, greater than 100 µM; with HOP-62 NSCLC it was greater than 100 µM; in the assay with MOLT-4 leukemia, 29.2 µM. Also, the GI50 in the assay with NCI-H522 lung was 63 µM; in the assay with A549 NSCLC, greater than 100 µM; in the assay with UACC-257 melanoma, greater than 100 µM; with U251 CNS it was greater than 100 µM. Further, the TGI in the assay with SF-295 CNS was greater than 100 µM; with SNB-19 CNS, greater than 100 µM; in the assay on MCF7 breast, greater than 100 µM; in the assay on SF-268 CNS it was greater than 100 µM; in the assay with HOP-62 NSCLC, greater than 100 µM; with MOLT-4 leukemia, 68.4 µM. The TGI with NCI-H522 lung, with A549 NSCLC, in the assay on UACC-257 melanoma and in the assay with U251 CNS was greater than 100 µM each time.
In the case of `N=C1C(c2nc3ccccc3s2)=C(O)CN1c1ccc(F)c(Cl)c1`, the GI50 in the assay on SF-295 CNS is 18.8 µM; in the assay on SNB-19 CNS, 21.5 µM; with MCF7 breast, 40.3 µM; with SF-268 CNS it was 22 µM; in the assay on HOP-62 NSCLC, 18.1 µM; in the assay with MOLT-4 leukemia, 19.6 µM. In addition, the GI50 was 11.5 µM with NCI-H522 lung, 11.2 µM with A549 NSCLC, 22.9 µM in the assay with UACC-257 melanoma and 5.76 µM in the assay on U251 CNS. Further, the TGI was greater than 100 µM in the assay with SF-295 CNS; 85.7 µM in the assay with SNB-19 CNS; greater than 100 µM in the assay on MCF7 breast; greater than 100 µM with SF-268 CNS; 36.2 µM in the assay with HOP-62 NSCLC; greater than 100 µM in the assay with MOLT-4 leukemia. Further, the TGI with NCI-H522 lung is 63.2 µM; in the assay with A549 NSCLC it was 62.2 µM; with UACC-257 melanoma, greater than 100 µM; with U251 CNS it was 23.2 µM.
For `O=c1[nH]c(=O)c2cn[nH]c2[nH]1`, the GI50 in the assay on SF-295 CNS, in the assay on SNB-19 CNS, with MCF7 breast, in the assay with SF-268 CNS, with HOP-62 NSCLC and in the assay on MOLT-4 leukemia was greater than 100 µM in each case. Moreover, the GI50 with NCI-H522 lung, in the assay with A549 NSCLC, in the assay with UACC-257 melanoma and with U251 CNS was greater than 100 µM throughout. Moreover, the TGI with SF-295 CNS, in the assay with SNB-19 CNS, in the assay on MCF7 breast, in the assay on SF-268 CNS, in the assay on HOP-62 NSCLC and in the assay on MOLT-4 leukemia was greater than 100 µM each time. For the same compound, the TGI with NCI-H522 lung, in the assay with A549 NSCLC, in the assay with UACC-257 melanoma and with U251 CNS was greater than 100 µM throughout.
For `COC(=O)C1CC23CCCN4CCC5(c6ccccc6N(C=O)C15CC2)C43` (stereo not given), the TGI with SF-295 CNS, with SNB-19 CNS, in the assay on MCF7 breast, with SF-268 CNS, with HOP-62 NSCLC and with MOLT-4 leukemia was greater than 100 µM each time. For the same compound, the TGI in the assay on NCI-H522 lung, in the assay with A549 NSCLC, in the assay with UACC-257 melanoma and in the assay on U251 CNS was greater than 100 µM throughout.
In the case of `CN(CCO)CC[C@H](CSc1ccccc1)Nc1ccc(S(=O)(=O)NC(=O)c2ccc(N3CCC([C@@H](O)c4ccccc4-c4ccc(Cl)cc4)CC3)cc2)cc1S(=O)(=O)C(F)(F)F`, the GI50 is 4.23 µM with SF-295 CNS; 2.77 µM in the assay on SNB-19 CNS; 2.97 µM in the assay with MCF7 breast; 3.92 µM in the assay with SF-268 CNS; 5.9 µM in the assay on HOP-62 NSCLC; 0.0719 µM with MOLT-4 leukemia. In addition, the GI50 in the assay with NCI-H522 lung is 4.4 µM; with A549 NSCLC, greater than 100 µM; with UACC-257 melanoma, 4.85 µM; in the assay with U251 CNS, 2.82 µM. The TGI was 25.3 µM in the assay on SF-295 CNS; 8.57 µM in the assay with SNB-19 CNS; 12.2 µM in the assay with MCF7 breast; greater than 46 µM in the assay with SF-268 CNS; 35.5 µM in the assay with HOP-62 NSCLC; 1.11 µM with MOLT-4 leukemia. Further, the TGI in the assay with NCI-H522 lung is greater than 72.9 µM; with A549 NSCLC, greater than 100 µM; with UACC-257 melanoma it was 30.6 µM; in the assay with U251 CNS, 8.88 µM.
Take `CC[C@@H]1c2c(C#N)ncn2-c2cnc(Nc3ccc(C(=O)NC4CCN(C5CCN(CC6CC6)CC5)CC4)cc3OC)nc2N1C1CCCC1`: the GI50 was 0.0454 µM in the assay with SF-295 CNS; 0.0668 µM in the assay with SNB-19 CNS; 0.00514 µM in the assay with MCF7 breast; 0.0642 µM with SF-268 CNS; 0.0403 µM in the assay with HOP-62 NSCLC; 0.037 µM with MOLT-4 leukemia. Also, the GI50 is 0.023 µM in the assay with NCI-H522 lung, 0.0401 µM in the assay on A549 NSCLC, 0.0431 µM in the assay on UACC-257 melanoma and 0.042 µM with U251 CNS. For the same compound, the TGI in the assay with SF-295 CNS came out at 1.94 µM; in the assay with SNB-19 CNS it was 2.05 µM; with MCF7 breast it was 1.2 µM; in the assay with SF-268 CNS, 1.77 µM; in the assay on HOP-62 NSCLC, 1.79 µM; in the assay on MOLT-4 leukemia, 1.51 µM. Also, the TGI worked out at 0.126 µM in the assay on NCI-H522 lung, 1.12 µM with A549 NSCLC, 1.67 µM in the assay on UACC-257 melanoma and 1.48 µM in the assay on U251 CNS.
`COc1cc(C(O)CCBr)c(OC)cc1C` (stereo not given): the TGI was greater than 73.1 µM in the assay with SF-295 CNS; greater than 100 µM in the assay with SNB-19 CNS; 54.7 µM in the assay with MCF7 breast; greater than 100 µM in the assay with SF-268 CNS; greater than 93.5 µM in the assay on HOP-62 NSCLC; greater than 100 µM in the assay with MOLT-4 leukemia. Further, the TGI in the assay on NCI-H522 lung was greater than 66.3 µM; with A549 NSCLC, greater than 100 µM; with UACC-257 melanoma, greater than 100 µM; in the assay on U251 CNS, greater than 100 µM.
For the compound `C/C(=N\NC(=S)N1CC2CCC(CC2)C1)c1nccs1`, the TGI in the assay with SF-295 CNS came to 7.81 µM; with SNB-19 CNS it was 15.1 µM; with MCF7 breast, 14 µM; in the assay on SF-268 CNS, 9.41 µM; in the assay with HOP-62 NSCLC, 5.66 µM; in the assay with MOLT-4 leukemia, 20.7 µM. Also, the TGI in the assay with NCI-H522 lung came to 14 µM; in the assay with A549 NSCLC, 8.87 µM; in the assay with UACC-257 melanoma it was 6.06 µM; with U251 CNS, 6.43 µM.
With `C=C1C(=O)O[C@@H]2C[C@@H](C)[C@@H]3C=CC(=O)[C@@]3(C)[C@@H](O)[C@H]12`, the TGI turned out to be 6.48 µM in the assay with SF-295 CNS; 7.02 µM in the assay on SNB-19 CNS; 2.3 µM in the assay on MCF7 breast; 27.9 µM in the assay on SF-268 CNS; 17.7 µM in the assay with HOP-62 NSCLC; 3.36 µM with MOLT-4 leukemia. The TGI in the assay with NCI-H522 lung turned out to be 0.663 µM; with A549 NSCLC, 11.8 µM; in the assay on UACC-257 melanoma it was 3.09 µM; in the assay on U251 CNS, 2.99 µM.
`CCNC(=O)C1CCCN1C(=O)C(CCCN=C(N)N)NC(=O)C(CC(C)C)NC(=O)C(CC(C)C)NC(=O)C(Cc1ccc(O)cc1)NC(=O)C(CO)NC(=O)C(Cc1c[nH]c2ccccc12)NC(=O)C(Cc1cnc[nH]1)NC(=O)C1CCC(=O)N1` (stereo not given) ([pGlu]HWSYLLRP-NHEt; configuration not given here): the GI50 in the assay on SF-295 CNS, in the assay with SNB-19 CNS, with MCF7 breast, in the assay on SF-268 CNS, in the assay with HOP-62 NSCLC and in the assay on MOLT-4 leukemia was greater than 100 µM throughout. Moreover, the GI50 in the assay with NCI-H522 lung, with A549 NSCLC, with UACC-257 melanoma and in the assay on U251 CNS was greater than 100 µM throughout. Also, the TGI in the assay on SF-295 CNS, in the assay on SNB-19 CNS, in the assay with MCF7 breast, with SF-268 CNS, in the assay on HOP-62 NSCLC and in the assay on MOLT-4 leukemia was greater than 100 µM throughout. Besides, the TGI with NCI-H522 lung, in the assay with A549 NSCLC, with UACC-257 melanoma and in the assay on U251 CNS was greater than 100 µM throughout.
On to `C[C@@]1(C(=O)O)CCC[C@]2(C)C1CC[C@@]13CC(=O)[C@@](CO)(CC[C@]12O)C3` (stereo not given in full), for which the GI50 with SF-295 CNS was greater than 100 µM; in the assay on SNB-19 CNS, 90.7 µM; in the assay on MCF7 breast, greater than 100 µM; in the assay on SF-268 CNS, greater than 100 µM; with HOP-62 NSCLC, greater than 100 µM; in the assay with MOLT-4 leukemia, greater than 100 µM. For the same compound, the GI50 with NCI-H522 lung, in the assay with A549 NSCLC, in the assay with UACC-257 melanoma and in the assay with U251 CNS was greater than 100 µM each time. Further, the TGI with SF-295 CNS, in the assay on SNB-19 CNS, in the assay on MCF7 breast, in the assay with SF-268 CNS, with HOP-62 NSCLC and with MOLT-4 leukemia was greater than 100 µM throughout. In addition, the TGI with NCI-H522 lung, with A549 NSCLC, with UACC-257 melanoma and in the assay with U251 CNS was greater than 100 µM throughout.
As for `COC(=O)c1ccc(-c2nc3cc(Cl)c(Cl)cc3nc2C#N)cc1`, the GI50 was greater than 100 µM with SF-295 CNS; greater than 100 µM with SNB-19 CNS; greater than 100 µM with MCF7 breast; greater than 100 µM in the assay on SF-268 CNS; 82.4 µM in the assay with HOP-62 NSCLC; greater than 100 µM in the assay with MOLT-4 leukemia. Moreover, the GI50 with NCI-H522 lung is greater than 100 µM; in the assay on A549 NSCLC, greater than 100 µM; with UACC-257 melanoma, greater than 100 µM; in the assay on U251 CNS, 42 µM. Further, the TGI in the assay with SF-295 CNS, in the assay with SNB-19 CNS, in the assay with MCF7 breast, with SF-268 CNS, with HOP-62 NSCLC and in the assay on MOLT-4 leukemia was greater than 100 µM in each case. Moreover, the TGI in the assay with NCI-H522 lung, with A549 NSCLC, in the assay with UACC-257 melanoma and in the assay with U251 CNS was greater than 100 µM in each case.
